In patent US20260021131A1, “USE OF MI[…] IN COMBINATION WITH CA[…] TREATING NASOPHARYNGEAL CARCINOMA” (CSPC ZHONGQI PHARMACEUTICAL TECHNOLOGY (SHIJIAZHUANG) CO., …, priority 2022, published 2026):

How the values were obtained:
[1] = test system: subjects with recurrent and/or metastatic nasopharyngeal carcinoma who have failed platinum-based therapy; assay type: in vivo, human
Description: (§1) Example 1. A Randomized, Open-Label, Positive-Controlled, Multi-center Phase III Clinical Study of Mitoxantrone Hydrochloride Liposome Injection Combined with Capecitabine Versus Capecitabine Monotherapy in Subjects with Recurrent and/or Metastatic Nasopharyngeal Carcinoma Who Have Failed Platinum-Based Therapy.
(§2) Subjects with recurrent and/or metastatic nasopharyngeal carcinoma who have failed first-line or second-line platinum-based therapy will be enrolled. After screening, eligible subjects are stratified-randomized (stratification factors: (1) ECOG score: 0 vs. 1; (2) whether a liver metastasis is present: any metastasis is present vs. all metastases are not present; (3) gender: male vs. female) in a 1:1 ratio into an experimental group and a control group.
(§3) The experimental group receives treatment with mitoxantrone hydrochloride liposome injection (20 mg/m^2) combined with capecitabine (1000 mg/m^2, twice daily), with every 3 weeks as a treatment cycle. The mitoxantrone hydrochloride liposome is administered on day 1 of each cycle, and capecitabine is administered on days 1 to 14. After 8 cycles of treatment with the mitoxantrone hydrochloride liposome, the investigator will assess the patient's risk-benefit ratio to determine whether to continue treatment until disease progression or intolerance, and capecitabine monotherapy as maintenance treatment. The control group receives capecitabine monotherapy, with every 3 weeks as a treatment cycle. Capecitabine monotherapy is administered on days 1 to 14 of each cycle. Sparse blood collection is conducted for all subjects in the experimental group.
(§4) During the study, the Independent Data Monitoring Committee (IDMC) will conduct safety assessments after two cycles of treatment for the first 40 subjects enrolled (about 20 per group) and throughout the study. Enrollment will continue during the safety assessment period. All subjects will be treated until disease progression according to the RECIST1.1 criteria, intolerable toxicity, withdrawal of informed consent, initiation of new anti-tumor therapy, loss to follow-up, death, or end of study, whichever occurs first. If the subject has no more treatment options after the investigator first determines that the subject has experienced disease progression, and the investigator determines that the subject can continue to benefit from the trial treatment, the subject may continue to receive the trial treatment in this trial until disease progression as assessed by the IRC or the investigator determines that the subject no longer benefits.
• Objective response rate (ORR), disease control rate (DCR), and duration of response (DOR) as assessed by the investigator and the IRC • Progression-free survival (PFS) as assessed by the investigator • Frequency and severity of AEs (NCI CTCAE 5.0); changes in vital signs, physical examinations, electrocardiograms, and laboratory findings • Total mitoxantrone and free mitoxantrone plasma concentrations. • Note: The abbreviations described above have the following meanings: • PFS: progression-free survival, defined as the time between the initial treatment of study drug and the date of disease progression (PD) or death, whichever occurs first. • OS: overall survival, defined as the time from the initial treatment of the study drug to death from any cause. • ORR: objective response rate, defined as the proportion of subjects achieving complete response (CR) and partial response (PR). • DCR: disease control rate, defined as the proportion of subjects achieving complete response (CR), partial response (PR), and stable disease (SD). • DOR: duration of response, defined as the time from the first assessment of CR or PR to the first assessment of PD or death from any cause.

[2] = test system: subjects with recurrent and/or metastatic nasopharyngeal carcinoma who have failed platinum-based therapy; experiment: Phase III clinical study of mitoxantrone hydrochloride liposome injection combined with capecitabine versus capecitabine monotherapy: efficacy evaluation (best overall response, RECIST 1.1); assay type: in vivo, human; set-up: key to Best overall response: complete response (CR); partial response (PR); stable disease (SD); disease progression (PD)
Description: as §1
This study is a randomized, open-label, positive-controlled, multicenter phase III clinical study whose objective is to evaluate the efficacy and safety of mitoxantrone hydrochloride liposome injection combined with capecitabine versus capecitabine monotherapy in subjects with recurrent and/or metastatic nasopharyngeal carcinoma.
as §2, §3
as §4, with “benefits. […]” for “benefits.”

[3] = subjects evaluated for BOR (9 experimental group, 5 control group), by Jul. 31, 2023

In the case of `CCCCCOC(=O)Nc1nc(=O)n([C@@H]2O[C@H](C)[C@@H](O)[C@H]2O)cc1F` [control group, capecitabine], the “SAE: Acute epiglottitis” value ([1]; both, human, in vivo) is reported as 0 n (%), the “SAE: Anemia” value ([1]; both, human, in vivo) is reported as 0 n (%) and the “SAE: Bacterial pneumonia” value ([1]; both, human, in vivo) is reported as 1 (3.3%) n (%). For the same compound, the “SAE: Cancer pain” value ([1]; both, human, in vivo) was 0 n (%), the “SAE: Dysphagia” value ([1]; both, human, in vivo) was 1 (3.3%) n (%) and the “SAE: General fatigue” value ([1]; both, human, in vivo) was 0 n (%). The “SAE: Hypokalemia” value ([1]; both, human, in vivo) was 0 n (%), the “SAE: Hyponatremia” value ([1]; both, human, in vivo) was 0 n (%) and the “SAE: Neutrophil count decreased” value ([1]; both, human, in vivo) was 0 n (%). The “SAE: Oralmucositis” value ([1]; both, human, in vivo) was 1 (3.3%) n (%), the “SAE: Platelet count decreased” value ([1]; both, human, in vivo) was 0 n (%) and the “SAE: Post-cardiac arrest resuscitation syndrome” value ([1]; both, human, in vivo) was 1 (3.3%) n (%). The “SAE: Posterior-circulation ischemia” value ([1]; both, human, in vivo) was 1 (3.3%) n (%), the “SAE: Pulmonary infection” value ([1]; both, human, in vivo) was 0 n (%) and the “SAE: Severe pneumonia” value ([1]; both, human, in vivo) was 1 (3.3%) n (%). For the same compound, the “SAE: Sinusitis” value ([1]; both, human, in vivo) was 0 n (%), the “SAE: Upper airway obstruction” value ([1]; both, human, in vivo) was 0 n (%) and the “SAE: White blood cell count decreased” value ([1]; both, human, in vivo) was 0 n (%). For the same compound, the “Subjects who experienced serious adverse events (SAEs), total” value ([1]; both, human, in vivo) was 3 subjects, the “SAE: Death from unknown cause” value ([1]; experimental group N = 32, control group N = 30) was 1 (3.3%) n (%) and the “Subjects who died (end of the study)” value ([1]; up to Jul. 31, 2023, 32 subjects experimental group, 30 subjects control group) was “two”. For the same compound, the Best overall response ([2]; subject S01005, ECOG 0, 1 line received, metastasis liver and lung) was “SD”, the Best overall response ([2]; subject S13001, ECOG 1, 1 line received, metastasis liver, spleen, and bone) was “PD” and the Best overall response ([2]; subject S14001, ECOG 1, 2 lines received, metastasis liver and bone) was “PD”. The Best overall response ([2]; subject S24001, ECOG 1, 2 lines received, metastasis bone) was “PR”, the Best overall response ([2]; subject S32001, ECOG 1, 1 line received, metastasis liver) was “PD” and the “Best overall response (BOR): number of evaluated subjects with PD” value [2, 3] was “three”. For the same compound, the “Best overall response (BOR): number of evaluated subjects with PR” value [2, 3] was “one”, the “Best overall response (BOR): number of evaluated subjects with SD” value [2, 3] was “one” and the “Best overall response (BOR): percentage of evaluated subjects with PD” value [2, 3] was 60%. For the same compound, the “Best overall response (BOR): percentage of evaluated subjects with PR” value [2, 3] was 20% and the “Best overall response (BOR): percentage of evaluated subjects with SD” value [2, 3] was 20%.
